Assay results as given in US4965280A, “Antifungal carbinols” (E. I. Du Pont de Nemours and Company, priority 1989, dated 1990).
In brackets after ≈: the same amount, converted by molar mass.

Key:
[1] = system: Venturia inaequalis; assay: Example A apple scab; assay type: in vivo; settings: 100 PPM, read-out: disease control rating, Ex. A
Procedure, shortened: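 Spray application to run-off on apple seedlings; compound at 100 or 20 ppm in water with 250 ppm TREM 014 (polyhydric alcohol esters) and 6% acetone of final volume.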

[2] = system: Cercosporidium personatum; assay: Example B Peanut Late Leafspot; assay type: in vivo; settings: Nothopassalora personata; 100 PPM; read-out: disease control rating, Ex. B
Procedure, shortened: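 Spray suspensions at 100 or 20 ppm, prepared from acetone solutions (acetone 6% of final volume) in water carrying 250 ppm of a polyhydric alcohol ester surfactant, were applied to peanut seedlings until run-off.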

[3] = system: Erysiphe graminis f. sp. tritici; assay: Example D wheat powdery mildew; assay type: in vivo; settings: Blumeria graminis, 144 h; 100 PPM; read-out: disease control rating, Ex. D
Procedure, shortened: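 Seedling wheat was treated by spraying to run-off; formulation used acetone as co-solvent (6% final) and TREM 014 surfactant at 250 ppm, with compound at 100 or 20 ppm.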

[4] = system: Pyricularia oryzae; assay: whole plant or invertebrate; assay type: in vivo; settings: Pyricularia oryzae, 120 h, read-out: disease control rating, Ex. E, 100 PPM
[5] = system: Rhizoctonia solani; assay: Example F rice sheath blight; assay type: in vivo; settings: Rhizoctonia solani, 144 h, 100 PPM; read-out: disease control rating, Ex. F
Procedure, shortened: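 Foliar run-off spray, rice seedlings: compound at 100 or 20 ppm in aqueous 250 ppm polyhydric alcohol ester surfactant, acetone 6% v/v final.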

[6] = system: Puccinia recondita; assay: Example G wheat leaf rust; assay type: in vivo; settings: 100 PPM, read-out: disease control rating, Ex. G
[7] = system: Phytophthora infestans; assay: whole plant or invertebrate; assay type: in vivo; settings: Phytophthora infestans, in Solanum lycopersicum, read-out: disease control rating, Ex. H, 100 PPM
[8] = system: Plasmorpara viticola; assay: Example I grape downy mildew; assay type: in vivo; settings: read-out: disease control rating, Ex. I
Procedure, shortened: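 First, each compound is taken up in acetone amounting to 6% of the final volume. It is then suspended in purified water containing 250 ppm of the polyhydric alcohol ester surfactant TREM 014, at 100 or 20 ppm. Finally, the suspension is sprayed onto grape seedlings until run-off.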

[9] = system: Pythium aphanadermatum; assay: Example J cucumber damping off; assay type: in vivo; design: key to phytotoxicity entry, Ex. J: P: disease control was not measured due to phytoxicity; settings: 5 kg/ha; for pest or weed control at 5000 g/ha: Pythium, 336 h, read-out: disease control rating, Ex. J
Procedure, shortened: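 Seeds and soil were inoculated with a mix of sand, cereal and Pythium aphanadermatum mycelium, the fungus responsible for cucumber damping off. They were kept in a growth chamber at 30° C. for 14 days, and disease was then rated to assess control.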

[10] = system: Rhizoctonia solani; assay: Example K cotton blight; assay type: in vivo; settings: 336 h, 5 kg/ha, read-out: disease control rating, Ex. K
Description: […] Seeds and soil were then inoculated with a mixture of sand, cereal and mycelium of the fungus Rhizoctonia solani, causal agent of cotton blight, and incubated in a growth chamber at 30° C. for 14 days. Disease ratings were then made.

[11] = system: Aspergillus fumigatus ATCC 28214; assay: In vitro antifungal MIC, microtiter broth dilution; settings: Aspergillus fumigatus, ATCC28214, 24 h, read-out: MIC values, A. fumigatus, 30°, 24 hours
[12] = system: Fusarium oxysporum f. sp. cucumerinum; assay: Example L cucumber wilt; assay type: in vivo; settings: 336 h, 5 kg/ha, read-out: disease control rating, Ex. L
Description: […] Seeds and soil were then inoculated with a mixture of sand, cereal and mycelium of the fungus Fusarium oxysporum f. sp. cucumerinum, causal agent of cucumber wilt, and incubated in a growth chamber at 30° C. for 14 days. Disease ratings were then made.

[13] = system: BARNYARDGRASS; assay: Test C rice paddy; assay type: in vivo, Echinochloa crusgalli; settings: Echinochloa crus-galli, 504 h, 21 days, read-out: plant response; for pest or weed control at 64 g/ha: 0064 G/HA; for pest or weed control at 125 g/ha: 0125 G/HA; for pest or weed control at 250 g/ha: 0250 G/HA; for pest or weed control at 500 g/ha: 0500 G/HA
Text: (§1) Sixteen cm diameter Airlite plastic pots were partially filled with Tama slit loam soil and the soil saturated with water. Japonica and Indica rice seedlings a the 2.0 to 2.5 leaf stage were transplanted into 1/3 of the pots. Into another third of the pots were transplanted seedling or sprouted tubers of water plantain (Alisma trivale), Scripus (Scirpus paludosus), Cyperus (Cyperus esculentus), and arrowhead (Sagittaria spp.). The remaining pots were planted with barnyardgrass (Echinochloa crusgalli) seeds and sprouted tubes of water chestnut (Eleocharis spp.). These weeds all represent major rice weeds or genera of weeds important in rice. Three to four days after planting, the water level was raised to 3 cm (about 1200 ml/pot) and maintained a this level throughout the test. Chemical treatments were applied directly to the paddy water, within 24 hours of raising the water, after being formulated in a nonphytotoxic solvent. The pots were maintained in the greenhouse.

[14] = system: ARROWHEAD; assay: Test C rice paddy; assay type: in vivo, Sagittaria spp.; settings: Sagittaria, 504 h, 21 days, read-out: plant response; for pest or weed control at 64 g/ha: 0064 G/HA; for pest or weed control at 125 g/ha: 0125 G/HA; for pest or weed control at 250 g/ha: 0250 G/HA; for pest or weed control at 500 g/ha: 0500 G/HA
Text: as §1

[15] = system: WATER PLAINTAIN; assay: Test C rice paddy; assay type: in vivo, Alisma trivale; settings: 504 h, 21 days, read-out: plant response; for pest or weed control at 64 g/ha: 0064 G/HA; for pest or weed control at 125 g/ha: 0125 G/HA; for pest or weed control at 250 g/ha: 0250 G/HA; for pest or weed control at 500 g/ha: 0500 G/HA
Text: as §1

Structure (SMILES)	pest or weed control at 100 ppm [1]	pest or weed control at 100 ppm [2]	pest or weed control at 100 ppm [3]	pest or weed control at 100 ppm [4]	pest or weed control at 100 ppm [5]	pest or weed control at 100 ppm [6]	pest or weed control at 100 ppm [7]	pest or weed control at 100 ppm [8]	pest or weed control at 5000 g/ha [9]	pest or weed control at 5000 g/ha [10]	MIC [11]	pest or weed control at 64 g/ha [13]	pest or weed control at 125 g/ha [13]	pest or weed control at 250 g/ha [13]	pest or weed control at 500 g/ha [13]	pest or weed control at 1000 g/ha [13]	pest or weed control at 64 g/ha [14]	pest or weed control at 125 g/ha [14]	pest or weed control at 250 g/ha [14]	pest or weed control at 500 g/ha [14]	further results
C=C(c1ccc(F)cc1)C(O)(Cn1cncn1)c1ccc(F)cc1F (stereo not shown) [Example 4, 2-(2,4-Difluorophenyl)-3-(4-fluorophenyl)-1-(1H-1,2,4-triazol-1-yl)-3-buten-2-ol]	100%	100%	100%	96%	100%	100%	0%	81%	0%	0%	0.8 µg/mL (≈ 2.32 µM)	–	–	–	–	–	–	–	–	–	–
C=C(c1ccccc1)C(O)(Cn1cncn1)c1ccc(Cl)cc1Cl (stereo not shown) [Example 50, 2-(2,4-Dichlorophenyl)-3-phenyl-1-(1H-1,2,4-triazol-1-yl)-3-buten-2-ol]	100%	100%	95%	86%	93%	100%	0%	46%	0%	–	0.8 µg/mL (≈ 2.22 µM)	0%	0%	60%	70%	70%	0%	0%	0%	30%	pest or weed control at 5000 g/ha [12]: 0%; pest or weed control at 1000 g/ha [14]: 50%; pest or weed control at 64 g/ha [15]: 0%; pest or weed control at 125 g/ha [15]: 0%; pest or weed control at 250 g/ha [15]: 0%; pest or weed control at 500 g/ha [15]: 0%; pest or weed control at 1000 g/ha [15]: 0%
C=C(c1ccccc1)C(O)(Cn1cncn1)c1ccc(Cl)cc1 (stereo not shown) [Example 51, 2-(4-Chlorophenyl)-3-phenyl-1-(1H-1,2,4-triazol-1-yl)-3-buten-2-ol]	100%	100%	100%	0%	100%	100%	0%	0%	–	–	3.2 µg/mL (≈ 9.82 µM)	–	–	–	–	–	–	–	–	–	phytotoxicity entry, Ex. J [9]: P
C=C(c1ccccc1)C(O)(Cn1cncn1)c1ccc(F)cc1F (stereo not shown) [Example 52, 2-(2,4-Difluorophenyl)-3-phenyl-1-(1H-1,2,4-triazol-1-yl)-3-buten-2-ol]	100%	100%	94%	93%	81%	100%	0%	0%	0%	–	0.4 µg/mL (≈ 1.22 µM)	–	–	–	–	–	–	–	–	–	pest or weed control at 5000 g/ha [12]: 0%
C=C(c1ccc(Cl)cc1Cl)C(O)(Cn1cncn1)c1ccccc1F (stereo not shown) [Example 107]	–	–	–	–	–	–	–	–	–	–	–	0%	0%	40%	90%	80%	0%	0%	0%	95%	pest or weed control at 1000 g/ha [14]: 70%; pest or weed control at 64 g/ha [15]: 0%; pest or weed control at 125 g/ha [15]: 0%; pest or weed control at 250 g/ha [15]: 0%; pest or weed control at 500 g/ha [15]: 60%; pest or weed control at 1000 g/ha [15]: 80%
C=C(c1ccc(F)cc1)C(O)(Cn1cncn1)c1ccccc1F (stereo not shown) [Example 644]	100%	100%	100%	100%	100%	100%	23%	0%	0%	0%	0.4 µg/mL (≈ 1.22 µM)	–	–	–	–	–	–	–	–	–	–
C=C(c1ccc(Cl)cc1)C(O)(Cn1cncn1)c1ccccc1F (stereo not shown) [Example 669]	100%	100%	100%	96%	100%	100%	0%	0%	0%	0%	0.8 µg/mL (≈ 2.33 µM)	90%	98%	98%	90%	100%	0%	0%	0%	0%	pest or weed control at 1000 g/ha [14]: 0%; pest or weed control at 64 g/ha [15]: 0%; pest or weed control at 125 g/ha [15]: 0%; pest or weed control at 250 g/ha [15]: 0%; pest or weed control at 500 g/ha [15]: 0%; pest or weed control at 1000 g/ha [15]: 0%
C=C(c1ccc(F)cc1)C(O)(Cn1ncnc1S)c1ccc(F)cc1F (stereo not shown) [Example 1304]	100%	100%	100%	78%	88%	100%	0%	18%	0%	0%	–	85%	100%	100%	98%	100%	0%	0%	0%	0%	pest or weed control at 5000 g/ha [12]: 0%; pest or weed control at 1000 g/ha [14]: 30%; pest or weed control at 64 g/ha [15]: 0%; pest or weed control at 125 g/ha [15]: 0%; pest or weed control at 250 g/ha [15]: 0%; pest or weed control at 500 g/ha [15]: 0%; pest or weed control at 1000 g/ha [15]: 65%
